One data set relates to native PAM. The experiment in a line: ADM maturation activity (AMA) of native PAM in Li-Heparin plasma with antibody and varying L-ascorbate. The note with it: FIG. 15. The data set is classed as biochemical, human. On the procedure:
A serial antibody-dilution with concentrations of 0, 5, 10, 50, 100, 500 and 3000 μg/mL per well, respectively (in 20 μl) were pipetted into 96-well micro-titer plates. Then 160 μl PAM reaction buffer (100 mM Tris-HCl, 6.25 μM CuSO4, 62.5 μM amastatin, 250 μM leupeptin, 36 ng/mL ADM-Gly) with varying L-ascorbate concentrations was added to the wells and incubated for 15 min. Afterwards the reaction was started by addition of 20 μl of Li-Heparin plasma, containing native PAM Immediately after addition of plasma, 100 μl from each well were removed and inactivated by addition of EDTA (20 mM final concentration) to generate a t=0 minutes reaction point. Inactivated and non-inactivated samples were incubated for 40 minutes at 37° C. and the reaction in non-inactivated samples was stopped as described above. For quantification of produced ADM-NH2 the Sphingotest® bio-ADM Kit (Weber et al. 2017) was utilized according to manufacturer's manual. The ADM maturation activity (AMA) was calculated according to equation 1 (DF=dilution factor of sample matrix).

In data set [1] the test system is CLP-induced sepsis in mice. The note with it: pre-treatment, cited from earlier work.
For data set [2], the system named is ADM-Gly to bio-ADM conversion. The data set is classed as in vivo. Particulars: for ADM-Gly/bioADM Ratio: Table 4, n 9. From the text:
ADM-Gly was quantified as based on Weber et al. (Weber et al. 2017. JALM 2(2): 222-233) for bioactive ADM with the following modifications: the tracer-antibody used for ADM-Gly detection, labelled with MACN-acridinium-NHS, was directed to the C-terminal glycine of ADM-Gly. The assay was calibrated with synthetic ADM-Gly. […] All determined ADM-Gly concentrations were corrected for cross-reactivity as follows: For each ADM-Gly quantification additional quantification of bio-ADM in corresponding samples was performed using the Sphingotest® bio-ADM immunoassay. The corresponding bio-ADM values were used to determine the signal (RLU) generated with the antibody directed to C-terminal glycine of ADM on a bio-ADM calibration curve. The determined signal (RLU) was used to calculate the false-positive ADM-Gly concentration (pg/mL) using the ADM-Gly calibration curve. This concentration was subtracted from the initially determined ADM-Gly concentration. […]
Critically ill subjects were from the AdrenOSS-I cohort described in example 7. Healthy and healthy HAM8101 treated subjects were from the study cohort described in example 6 (Geven et al. 2017. Intensive Care Med Exp 5 (Suppl 2): 0427). Bio-ADM was determined as described by Weber et al., 2017. ADM-Gly was determined as described in example 4.

The next data set concerns recombinant human PAM. The experiment in a line: Formation of bio-ADM from ADM-Gly by recombinant human PAM. The data set is classed as biochemical. Here is the method:
The formation of bio-ADM from c-terminally glycinated 1-53 Adrenomedullin (ADM-Gly) by recombinant human PAM and the influence of the N-terminal anti-Adrenomedullin antibodies on the bio-ADM formation from ADM-Gly by PAM was investigated.
In a first step, 200 μl per well ADM-Gly (50 ng/mL) dissolved in buffer (300 mM potassium-phosphate, 100 mM NaCl, 10 mM Na-EDTA, 5 g/L BSA, pH 7.0) was added to microtiter plate wells that were precoated with an anti-MR-ADM antibody, and were incubated for 1 h at 22° C. under agitation (600 rpm). Unbound material was removed by washing. In a second step, varying concentrations (0-100 μg/mL) of either N-terminal- (HAM8101), C-terminal anti-Adrenomedullin antibody specifically blocking the glycinated C-terminus of ADM-Gly or an unspecific antibody (control antibody) was added to the wells (200 μl per well) for 1 h at 22° C. under agitation (600 rpm). The respective antibodies were diluted in buffer as described above. Unbound antibodies were removed by washing. […] After a final washing step, the remaining chemiluminescence was measured for 1 s per well with a Centro LB 960 microtiter plate luminescence reader (Berthold Technologies). To evaluate the velocity of the enzyme PAM, the signal for bio-ADM measured at t=0 minutes was subtracted from the signal for bio-ADM at t=40 minutes for each antibody concentration. […]

Data set [3] in a line: Single escalating i.v. doses in healthy male subjects (phase I): ADM values and safety. The data set is classed as in vivo, human. Here is the method:
The study was described in Geven et al. (Geven et al. 2017. Intensive Care Med Exp 5 (Suppl 2): 0427). Briefly, the study was conducted in healthy male subjects as a randomized, double-blind, placebo-controlled, study with single escalating doses of NT-H antibody (HAM8101) administered as intravenous (i.v.) infusion in 3 sequential groups of 8 healthy male subjects each (1st group 0.5 mg/kg, 2nd group 2 mg/kg, 3rd group 8 mg/kg) of healthy male subjects (n=6 active, n=2 placebo for each group). The main inclusion criteria were written informed consent, age 18-35 years, agreement to use a reliable way of contraception and a BMI between 18 and 30 kg/m^2. Subjects received a single i.v. dose of NT-H antibody (HAM8101) (0.5 mg/kg; 2 mg/kg; 8 mg/kg) or placebo by slow infusion over a 1-hour period in a research unit.

The conditions of data set [4]: Geven et al. 2017; cited from earlier work.

Like-named read-outs stand apart in the source and are kept apart here.

Turning to “HAM8101: humanized N-terminal anti-ADM antibody, heavy chain SEQ ID No. 35, light chain SEQ ID No. 36”, the “increase of the bio-ADM formation of PAM” value in the data set on native PAM (100 μg/mL of HAM8101 in the amidation assay, Li-Heparin plasma) stood at 40%. The “effect on the amidation for each ascorbate concentration assayed” value in the data set on native PAM (HAM8101 0-3000 μg/mL) is “concentration dependent positive effect on the amidation”. Moreover, the 7-day survival in data set [1] (repeated dose administration, control 0%) is 40%; in data set [1] (single dose administration, control 10%), 50%. The “ADM-Gly/bioADM Ratio” value in data set [2] (Healthy HAM8101 treated (1 h)) stood at 0.61; in data set [2] (Healthy HAM8101 treated (4 h)), 0.33. Besides, the “ratio of ADM-Gly/bio-ADM” value in data set [2] (group 1 (0.5 mg/kg), after 1 h, FIG. 12) was “approximately 0.75”; in data set [2] (group 1 (0.5 mg/kg), after 24 hours) it was “No further change”; in data set [2] (group 1 (0.5 mg/kg), four hours after administration), “approximately 0.38”; in data set [2] (group 2 (2 mg/kg), after 1 h), around 0.63; in data set [2] (group 2 (2 mg/kg), after 24 hours) it was “No further change”; in data set [2] (group 2 (2 mg/kg), four hours after administration) it was around 0.25. Moreover, the “ratio of ADM-Gly/bio-ADM” value is around 0.43 in data set [2] (group 3 (8 mg/kg), after 1 h); “approximately 0.5” in data set [2] (group 3 (8 mg/kg), after 24 hours); “approximately 0.38” in data set [2] (group 3 (8 mg/kg), four hours after administration). Also, the “PAM activity compared to the reaction without antibody addition (set at 100%)” value in the data set on recombinant human PAM (10 μg/mL antibody, 40 minutes, 37° C., 2 mM L-Ascorbate) was found to be 233%. Moreover, in the data set on recombinant human PAM (antibody 0-100 μg/mL, FIG. 7), the “influence on conversion of ADM-Gly to bio-ADM by PAM” value is recorded as “significant accelerating effect”. The “time within which ADM-values rapidly increased after administration” value in data set [3] (healthy human individuals, 0.5, 2, 8 mg/kg i.v., FIG. 10) is at most 1.5 h. Further, the “safety: heart rate, mean arterial pressure, peripheral oxygen saturation, temperature” value in data set [3] (healthy male subjects, single i.v. dose 0.5, 2, 8 mg/kg) is listed as “did not influence heart rate, mean arterial pressure, peripheral oxygen saturation or temperature”. In data set [3] (healthy male subjects, single i.v. dose 0.5, 2, 8 mg/kg versus placebo), the “routine haematological and biochemical safety laboratory measurements” value was “no significant differences between groups”. For the same substance, the “safety and tolerability, phase I study” value in data set [4] is “no serious adverse events were observed”.

(Values after patent US12662530B2, “Anti-ADM-antibodies binding to the free N-terminus for accelerated transition of ADM-Gly to bio-ADM in patients with ADM-Gly/ bio-ADM ratio above a threshold and combination with vitamin C” (SphingoTec GmbH, priority 2020, dated 2026).)
